Assay results as given in patent publication US6069167A, “Use of antioxidant agents to treat cholestatic liver disease” (priority 1997, dated 2000).

Legend:
[1] = Serum bile acid concentrations four hours after intravenous TCDC by GC-MS; format: in vivo, male Sprague-Dawley rats
Excerpt: Young adult male Sprague-Dawley rats (150-180 gram weight) purchased from Sasco, Inc. (Omaha, Nebr.) were fed Purina Lab Chow (Ralston Purina Co., Chicago, Ill.) ad libitum for 2-3 weeks and housed in polyethylene cages with stainless steel tops on a 12-hour light-dark cycle. All rats received humane care in compliance with the guidelines of the Animal Use in Research Committee of the University of Colorado Health Sciences Center. Rats were then randomly assigned (4-5 per group) to receive 0 (vehicle only), 5, 10, or 20 μmol of taurochenodeoxycholic acid (TCDC)/100 gram body weight. TCDC is a conjugate of the bile acid most implicated in cholestatic liver injury9,11,12. TCDC was solubilized in 5% dextrose, 10% BSA, and 0.45% normal saline. TCDC was administered while rats were under light methoxyflurane anesthesia as an intravenous bolus of the desired dose in 1 to 2 minutes through the tail vein. TCDC dosing was performed between 7 and 9 am. Rats recovered from the injection uneventfully and blood was obtained at 0, 4, 8, 12 and 24 hours after the injection for determination of AST, ALT total bilirubin and alkaline phosphatase by an automated chemical analyzer (Hitachi 747 Chemical Analyzer).
Because serum AST and ALT concentrations peaked at 4 hours, further evaluation of liver injury was performed at that time point Total concentrations (conjugated+free bile acids) of individual bile acids were measured in serum obtained at 4 hours by gas chromatography-mass spectroscopy (GC-MS), as previously described^30. Briefly, after serum samples were extracted with the addition of the internal standard 7-alpha, 12-alpha, dihydroxy-5 beta cholanic acid, trimethylsilyl esterification was performed. Individual bile acids were then quantified by GC or GC-MS using a Hewlett-Packard 5790 flame ionization detector equipped with a 30 meter DB-1 capillary column with internal diameter of 0.25 mm and a film thickness of 0.25 micrometers (J & W Scientific, Folsom, Calif.). For GC-MS measurements, a Hewlett-Packard 5970-A mass selective detector operating in selective ion monitoring mode was used. Results were expressed as μmol/L for each individual bile acid.

[2] = tested on: TCDC hepatic toxicity; format: in vivo, male Sprague-Dawley rats; conditions: rat, in vivo
Excerpt: Young adult male Sprague-Dawley rats (150-180 gram weight) purchased from Sasco, Inc. (Omaha, Nebr.) were fed Purina Lab Chow (Ralston Purina Co., Chicago, Ill.) ad libitum for 2-3 weeks and housed in polyethylene cages with stainless steel tops on a 12-hour light-dark cycle. All rats received humane care in compliance with the guidelines of the Animal Use in Research Committee of the University of Colorado Health Sciences Center. […] TCDC is a conjugate of the bile acid most implicated in cholestatic liver injury9,11,12. TCDC was solubilized in 5% dextrose, 10% BSA, and 0.45% normal saline. TCDC was administered while rats were under light methoxyflurane anesthesia as an intravenous bolus of the desired dose in 1 to 2 minutes through the tail vein. TCDC dosing was performed between 7 and 9 am. […] Rats were divided into two treatment groups. One group was pretreated with parenteral Vitamin E (all-rac-alpha tocopherol, […], Hoffmann-LaRoche,Nutley, N.J.). The other group was not pretreated. These rats then received either vehicle or TCDC (10 μmol/[…]) by tail vein injection (as described in Example 1). […] All i.p. injections were administered under light methoxyflurane anesthesia. Following the vitamin E or saline injections, rats were randomly assigned to receive a tail vein bolus injection of either TCDC or vehicle. Rats were sacrificed four hours later and serum was analyzed for AST, ALT, total bilirubin and alkaline phosphatase. […] The serum alpha tocopherol:total lipids ratio (mg/gm) was calculated as an additional index of vitamin E status^41.

[3] = tested on: lactate dehydrogenase (LDH); assay: Interference of TCDC with the LDH assay (total LDH activity of hepatocyte lysate); format: cell-based, rat; conditions: 10×10^6 hepatocytes incubated 4 hours with or without TCDC at 1000 μmol/L
Method: Adult male Sprague Dawley rats (250-275 grams body weight) were obtained from Sasco, Inc. (Omaha, Nebr.). They were maintained on Purina lab chow (Ralston Purina Co., Chicago, Ill.) for 2-3 weeks and housed in polyethylene cages with stainless steel tops on a […]. All rats received humane care in compliance with the guidelines of the Committee on Laboratory Animal Research of the University of Colorado Health Sciences Center. Hepatocytes were isolated using a collagenase reperfusion technique that was a modification^24 of the method of Berry and Friend^25. After administration of intraperitoneal anesthesia (50 mg/kg body weight), each rat liver was perfused in situ via the portal vein with Krebs-Henseleit buffer containing a mixture of 17 amino acids as previously described^24 under a 9% O2 /5% CO2 /86% N2 atmosphere until perfusate was blood free (after approximately 25-50 ml of perfusate infusion). […] Initial cell viability measured by the trypan blue exclusion method^43 was above 95%. […]
Hepatocyte injury was assessed by the percentage of total cellular lactate dehydrogenase (LDH) release into the buffer medium. LDH was analyzed by measuring the rate of decrease in absorbance at 340 nm during reduction of pyruvate using a diagnostic kit supplied by Sigma Diagnostics (St Louis, Mo.). […]

[4] = tested on: bile flow; conditions: continuous jugular vein TCDC infusion 0.4 to 0.6 μmol/min/100 gram over 60 minutes; cited from earlier work
[5] = 4 h after i.v. TCDC 10 μmol/100 gram, mean ± SEM, n = 5, P < 0.05 versus vehicle
[6] = 4 h after i.v. TCDC 10 μmol/100 gram, mean ± SEM, n = 5, conjugates plus unconjugates

SMILES: C[C@H](CCC(=O)NCCS(=O)(=O)O)[C@H]1CC[C@H]2[C@@H]3[C@H](O)C[C@@H]4C[C@H](O)CC[C@]4(C)[C@H]3CC[C@]12C [TCDC, taurochenodeoxycholic acid]
- Serum individual bile acids, change versus vehicle ([1]; 4 h after i.v. TCDC 10 μmol/100 gram): significant increases in most bile acids
- Serum alpha-muricholic acid concentration [1, 5]: 77.4 ± 15.9 µmol/L
- Serum beta-muricholic acid concentration [1, 5]: 12.4 ± 3.3 µmol/L
- Serum cholic acid concentration [1, 5]: 134.8 ± 30.2 µmol/L
- Serum total bile acids concentration [1, 5]: 277.8 ± 49.0 µmol/L
- Serum deoxycholic acid concentration [1, 6]: 4.8 ± 1.2 µmol/L
- Serum lithocholic acid concentration [1, 6]: 0.6 ± 0.2 µmol/L
- Serum ursodeoxycholic acid concentration [1, 6]: 4.4 ± 0.4 µmol/L
- CDC concentrations, change ([1]; in vivo model, TCDC): elevated to a similar extent as the other bile acids
- Lithocholate conjugates, change ([1]; in vivo model, TCDC): lack of substantial elevation
- ALT [2]: 1111 ± 213 IU/L
- AST [2]: 2472 ± 505 IU/L
- Bilirubin [2]: 0.4 ± 0.1 mg/dL
- Total hepatocyte LDH activity in the lysate [3]: 90-96 units
- Bile flow and hepatic bile secretion [4]: marked reduction in bile flow and of hepatic bile secretion
